US9051299B2, “Imidazolyl methyl piperidine T-type calcium channel antagonists” (Merck Sharp & Dohme Corp., priority 2012, dated 2015)

Experiments:
[1] = target: T1, T-type calcium channel A1i (alpha-1I, CaV 3.3) (Homo sapiens, UniProt Q9P0X4); test: FLIPR Ca2+ Flux Assay, hyperpolarized state; assay type: cell-based; conditions: measure of the ability to inhibit T-type calcium channel, read-out: Ali Hyperpolarized
T1 construct: expressed in transfected cells; host or cells: HEK 293 cells, tetracycline-inducible expression (Zeocin/Blasticidin selection)
T1 sequence (Q9P0X4 whole entry): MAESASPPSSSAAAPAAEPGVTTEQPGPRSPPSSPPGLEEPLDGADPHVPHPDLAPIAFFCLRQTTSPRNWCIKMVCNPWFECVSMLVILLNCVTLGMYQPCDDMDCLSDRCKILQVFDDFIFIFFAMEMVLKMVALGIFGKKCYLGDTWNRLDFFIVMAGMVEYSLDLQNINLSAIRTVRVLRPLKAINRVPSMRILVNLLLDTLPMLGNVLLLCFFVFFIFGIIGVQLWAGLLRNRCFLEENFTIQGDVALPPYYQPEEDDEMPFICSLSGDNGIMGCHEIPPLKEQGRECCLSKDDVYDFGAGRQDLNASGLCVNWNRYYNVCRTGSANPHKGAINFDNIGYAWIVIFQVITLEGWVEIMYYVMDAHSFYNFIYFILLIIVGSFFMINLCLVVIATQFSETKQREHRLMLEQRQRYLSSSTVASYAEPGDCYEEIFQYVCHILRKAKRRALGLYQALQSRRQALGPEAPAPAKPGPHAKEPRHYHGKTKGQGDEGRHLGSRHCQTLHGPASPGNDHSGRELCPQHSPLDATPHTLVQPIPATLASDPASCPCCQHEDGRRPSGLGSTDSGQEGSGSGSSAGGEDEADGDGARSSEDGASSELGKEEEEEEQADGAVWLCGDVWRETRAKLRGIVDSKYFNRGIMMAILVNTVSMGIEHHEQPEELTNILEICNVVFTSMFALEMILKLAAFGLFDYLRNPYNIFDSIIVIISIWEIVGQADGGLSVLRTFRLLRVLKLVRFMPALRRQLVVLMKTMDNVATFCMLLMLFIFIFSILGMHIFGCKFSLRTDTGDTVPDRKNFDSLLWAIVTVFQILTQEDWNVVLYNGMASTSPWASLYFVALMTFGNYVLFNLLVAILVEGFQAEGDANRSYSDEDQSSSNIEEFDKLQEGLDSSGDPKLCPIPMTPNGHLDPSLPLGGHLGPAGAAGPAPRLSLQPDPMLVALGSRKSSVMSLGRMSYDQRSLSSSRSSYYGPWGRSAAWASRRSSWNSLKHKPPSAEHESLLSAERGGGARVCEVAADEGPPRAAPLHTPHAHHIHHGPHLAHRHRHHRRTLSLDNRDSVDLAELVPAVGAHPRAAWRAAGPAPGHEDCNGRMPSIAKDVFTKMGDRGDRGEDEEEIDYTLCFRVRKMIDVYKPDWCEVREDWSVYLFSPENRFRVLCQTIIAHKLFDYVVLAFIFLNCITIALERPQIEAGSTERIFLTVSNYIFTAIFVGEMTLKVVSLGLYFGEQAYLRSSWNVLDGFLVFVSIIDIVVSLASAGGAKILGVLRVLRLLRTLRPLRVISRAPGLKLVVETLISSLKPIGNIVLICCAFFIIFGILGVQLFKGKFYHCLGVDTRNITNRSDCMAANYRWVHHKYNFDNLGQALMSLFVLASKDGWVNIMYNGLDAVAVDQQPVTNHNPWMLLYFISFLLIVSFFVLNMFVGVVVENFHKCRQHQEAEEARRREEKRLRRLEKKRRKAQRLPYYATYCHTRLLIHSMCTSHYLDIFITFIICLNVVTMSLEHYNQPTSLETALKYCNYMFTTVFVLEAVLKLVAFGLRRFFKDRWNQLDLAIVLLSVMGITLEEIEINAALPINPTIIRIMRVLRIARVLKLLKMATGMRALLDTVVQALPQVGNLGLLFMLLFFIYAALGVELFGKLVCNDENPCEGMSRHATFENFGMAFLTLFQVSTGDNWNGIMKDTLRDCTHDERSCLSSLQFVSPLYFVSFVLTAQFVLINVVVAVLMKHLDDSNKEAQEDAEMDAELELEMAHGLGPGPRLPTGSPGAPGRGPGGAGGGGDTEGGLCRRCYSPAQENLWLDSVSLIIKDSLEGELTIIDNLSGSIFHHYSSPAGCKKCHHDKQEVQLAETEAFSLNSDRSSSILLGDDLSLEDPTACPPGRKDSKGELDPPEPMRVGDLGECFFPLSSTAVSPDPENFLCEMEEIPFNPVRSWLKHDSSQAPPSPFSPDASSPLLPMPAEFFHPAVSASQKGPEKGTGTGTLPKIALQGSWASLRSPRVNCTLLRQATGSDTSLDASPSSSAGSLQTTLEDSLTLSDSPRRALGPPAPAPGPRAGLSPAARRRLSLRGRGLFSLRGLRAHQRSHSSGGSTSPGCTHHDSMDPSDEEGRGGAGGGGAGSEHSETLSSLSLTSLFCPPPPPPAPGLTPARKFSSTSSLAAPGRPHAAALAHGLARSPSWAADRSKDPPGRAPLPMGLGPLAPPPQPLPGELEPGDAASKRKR

[2] = target: T1, T-type calcium channel A1i (alpha-1I, CaV 3.3); test: FLIPR Ca2+ Flux Assay, depolarized state; assay type: cell-based; conditions: measure of the ability to inhibit T-type calcium channel

Structure (SMILES) | IC50 [1] | IC50 [2]
O=C(c1cccc(C(F)(F)F)c1)C1CCN(Cc2cnc(-c3ccccc3)[nH]2)CC1 [Example 1, (1-((2-Phenyl-1H-imidazol-5-yl)methyl)piperidin-4-yl)(3-(trifluoromethyl)phenyl)-methanone] | 70 nM | 742 nM
O=C(c1ccc2nonc2c1)C1CCN(Cc2c[nH]c(-c3ccccc3)n2)CC1 [Example 4, 2,1,3-benzoxadiazol-5-yl-[1-[(2-phenyl-1H-imidazol-4-yl)methyl]-4-piperidyl]methanone] | 155 nM | 2870 nM
O=C(c1ccc(F)c(F)c1)C1CCN(Cc2c[nH]c(-c3ccccc3)n2)CC1 [Example 5, (3,4-difluorophenyl)-[1-[(2-phenyl-1H-imidazol-4-yl)methyl]-4-piperidyl]methanone] | 686 nM | 4060 nM
Cc1ccc(C(=O)C2CCN(Cc3c[nH]c(-c4ccccc4)n3)CC2)cc1 [Example 7, [1-[(2-phenyl-1H-imidazol-4-yl)methyl]-4-piperidyl]-(p-tolyl)methanone] | 644 nM | 7090 nM
Cc1cccc(C(=O)C2CCN(Cc3c[nH]c(-c4ccccc4)n3)CC2)c1 [Example 8, m-tolyl-[1-[(2-phenyl-1H-imidazol-4-yl)methyl]-4-piperidyl]methanone] | 313 nM | 4620 nM
CCc1nc(C)c(CN2CCC(C(=O)c3cccc(C(F)(F)F)c3)CC2)[nH]1 [Example 10, [1-[(2-ethyl-4-methyl-1H-imidazol-5-yl)methyl]-4-piperidyl]-[3-(trifluoromethyl)phenyl]methanone] | 6900 nM | > 10000 nM

Further lines, results first:

IC50 [1] | IC50 [2] | Structure (SMILES)
242 nM | 3180 nM | O=C(c1ccc(F)cc1)C1CCN(Cc2c[nH]c(-c3ccccc3)n2)CC1 [Example 2]
129 nM | 2090 nM | O=C(c1cccc(Cl)c1)C1CCN(Cc2c[nH]c(-c3ccccc3)n2)CC1 [Example 3, (3-chlorophenyl)-[1-[(2-phenyl-1H-imidazol-4-yl)methyl]-4-piperidyl]methanone]
1060 nM | > 10000 nM | COc1ccc(C(=O)C2CCN(Cc3c[nH]c(-c4ccccc4)n3)CC2)cc1 [Example 6, (4-methoxyphenyl)-[1-[(2-phenyl-1H-imidazol-4-yl)methyl]-4-piperidyl]methanone]
7600 nM | > 10000 nM | Cc1nc(CN2CCC(C(=O)c3cccc(C(F)(F)F)c3)CC2)c[nH]1 [Example 9, [1-[(2-methyl-1H-imidazol-4-yl)methyl]-4-piperidyl]-[3-(trifluoromethyl)phenyl]methanone]
